Laboratory results: the NIST ThermoML archive (doi:10.1016/j.fluid.2013.08.029)
Numbers after ± are expanded uncertainties.

Test: xn = mol fraction of the nth substance listed
Conditions: 101 kPa, Liquid; for speed of sound: Sing-around technique in a fixed-path interferometer; for mass density: Vibrating tube method

CCCCCn1cc[n+](C)c1.[Br-] [1-pentyl-3-methylimidazolium bromide] + OCCO
Conditions	mass density [kg/m3]	speed of sound [m/s]
288.15 K, x1 = 0.0528	1135.7 ± 0.19	1671.7 ± 2.2
288.15 K, x1 = 0.1031	1149.85 ± 0.21	1664.4 ± 2.2
288.15 K, x1 = 0.2102	1173.93 ± 0.28	1650.6 ± 2.3
288.15 K, x1 = 0.3163	1191.2 ± 0.38	1645.3 ± 2.4
288.15 K, x1 = 0.4186	1204.89 ± 0.48	1641.4 ± 2.4
288.15 K, x1 = 0.512	1215.13 ± 0.59	1637.7 ± 2.5
288.15 K, x1 = 0.6129	1224.18 ± 0.72	1636.5 ± 2.6
288.15 K, x1 = 0.6967	1232.13 ± 0.85	1638.7 ± 2.6
288.15 K, x1 = 0.8031	1241.92 ± 1	1645 ± 2.8
288.15 K, x1 = 0.9021	1252.46 ± 1.2	1657.9 ± 2.9
293.15 K, x1 = 0.0528	1132.19 ± 0.18	1659.9 ± 2.2
293.15 K, x1 = 0.1031	1146.32 ± 0.21	1653.9 ± 2.2
293.15 K, x1 = 0.2102	1170.4 ± 0.28	1642 ± 2.3
293.15 K, x1 = 0.3163	1187.71 ± 0.37	1634.5 ± 2.4
293.15 K, x1 = 0.4186	1201.44 ± 0.48	1628.9 ± 2.4
293.15 K, x1 = 0.512	1211.73 ± 0.59	1625.5 ± 2.5
293.15 K, x1 = 0.6129	1220.73 ± 0.72	1623.6 ± 2.6
293.15 K, x1 = 0.6967	1228.69 ± 0.84	1623.8 ± 2.6
293.15 K, x1 = 0.8031	1238.53 ± 1	1626.3 ± 2.7
293.15 K, x1 = 0.9021	1249.15 ± 1.2	1631.1 ± 2.9
298.15 K, x1 = 0.0528	1128.67 ± 0.18	1648.2 ± 2.2
298.15 K, x1 = 0.1031	1142.79 ± 0.21	1640.8 ± 2.2
298.15 K, x1 = 0.2102	1166.87 ± 0.28	1630.7 ± 2.3
298.15 K, x1 = 0.3163	1184.21 ± 0.37	1623 ± 2.4
298.15 K, x1 = 0.4186	1198 ± 0.47	1616.8 ± 2.4
298.15 K, x1 = 0.512	1208.33 ± 0.58	1613.8 ± 2.5
298.15 K, x1 = 0.6129	1217.41 ± 0.71	1612.4 ± 2.6
298.15 K, x1 = 0.6967	1225.25 ± 0.84	1611.9 ± 2.6
298.15 K, x1 = 0.8031	1235.13 ± 1	1613.2 ± 2.7
298.15 K, x1 = 0.9021	1245.76 ± 1.2	1616 ± 2.8
303.15 K, x1 = 0.0528	1125.14 ± 0.18	1636.4 ± 2.2
303.15 K, x1 = 0.1031	1139.26 ± 0.21	1629.8 ± 2.2
303.15 K, x1 = 0.2102	1163.34 ± 0.28	1619.1 ± 2.3
303.15 K, x1 = 0.3163	1180.73 ± 0.37	1611.6 ± 2.4
303.15 K, x1 = 0.4186	1194.57 ± 0.47	1606.2 ± 2.4
303.15 K, x1 = 0.512	1204.94 ± 0.58	1603 ± 2.5
303.15 K, x1 = 0.6129	1214.06 ± 0.71	1601.7 ± 2.6
303.15 K, x1 = 0.6967	1221.86 ± 0.83	1600.4 ± 2.6
303.15 K, x1 = 0.8031	1231.73 ± 1	1600.9 ± 2.7
303.15 K, x1 = 0.9021	1242.37 ± 1.2	1602.4 ± 2.8
308.15 K, x1 = 0.0528	1121.61 ± 0.18	1624.7 ± 2.2
308.15 K, x1 = 0.1031	1135.72 ± 0.21	1618.3 ± 2.2
308.15 K, x1 = 0.2102	1159.81 ± 0.28	1607.5 ± 2.3
308.15 K, x1 = 0.3163	1177.25 ± 0.36	1600.1 ± 2.4
308.15 K, x1 = 0.4186	1191.13 ± 0.47	1594.3 ± 2.4
308.15 K, x1 = 0.512	1201.54 ± 0.57	1591.3 ± 2.5
308.15 K, x1 = 0.6129	1210.72 ± 0.7	1590 ± 2.6
308.15 K, x1 = 0.6967	1218.56 ± 0.83	1589.1 ± 2.6
308.15 K, x1 = 0.8031	1228.31 ± 1	1589.3 ± 2.7
308.15 K, x1 = 0.9021	1238.93 ± 1.2	1589.8 ± 2.8
313.15 K, x1 = 0.0528	1118.07 ± 0.18	1613.1 ± 2.2
313.15 K, x1 = 0.1031	1132.18 ± 0.2	1606.5 ± 2.2
313.15 K, x1 = 0.2102	1156.29 ± 0.27	1596.1 ± 2.3
313.15 K, x1 = 0.3163	1173.78 ± 0.36	1588.8 ± 2.3
313.15 K, x1 = 0.4186	1187.7 ± 0.46	1583.2 ± 2.4
313.15 K, x1 = 0.512	1198.15 ± 0.57	1580.3 ± 2.5
313.15 K, x1 = 0.6129	1207.38 ± 0.7	1579.1 ± 2.6
313.15 K, x1 = 0.6967	1215.25 ± 0.82	1578.2 ± 2.6
313.15 K, x1 = 0.8031	1225 ± 0.99	1578 ± 2.7
313.15 K, x1 = 0.9021	1235.48 ± 1.2	1578 ± 2.8
318.15 K, x1 = 0.0528	1114.51 ± 0.18	1601.4 ± 2.2
318.15 K, x1 = 0.1031	1128.62 ± 0.2	1595 ± 2.2
318.15 K, x1 = 0.2102	1152.75 ± 0.27	1584.5 ± 2.3
318.15 K, x1 = 0.3163	1170.3 ± 0.36	1577.5 ± 2.3
318.15 K, x1 = 0.4186	1184.27 ± 0.46	1572.2 ± 2.4
318.15 K, x1 = 0.512	1194.76 ± 0.57	1569.5 ± 2.5
318.15 K, x1 = 0.6129	1204.05 ± 0.69	1568.3 ± 2.6
318.15 K, x1 = 0.6967	1211.94 ± 0.81	1567.4 ± 2.6
318.15 K, x1 = 0.8031	1221.73 ± 0.99	1567.1 ± 2.7
318.15 K, x1 = 0.9021	1232.06 ± 1.2	1566.8 ± 2.8
